# Assay results published in ChEMBL document CHEMBL1139551, “2,3-Ethylene- and 2,3-trimethylene-bridged analogues of the group III metabotropic glutamate receptor ligand 2-amino-4-phosphonobutanoic acid” (Bioorg Med Chem Lett, 2005).
# Target: T1, Metabotropic glutamate receptor 4 (Homo sapiens, UniProt Q14833)
# Assay: Agonistic activity towards group III Metabotropic glutamate receptor stably expressed in AV12 cells when tested up to 200 uM; NS means no significant activity
# Assay type: functional, cell-based
# T1 sequence (Q14833 whole entry): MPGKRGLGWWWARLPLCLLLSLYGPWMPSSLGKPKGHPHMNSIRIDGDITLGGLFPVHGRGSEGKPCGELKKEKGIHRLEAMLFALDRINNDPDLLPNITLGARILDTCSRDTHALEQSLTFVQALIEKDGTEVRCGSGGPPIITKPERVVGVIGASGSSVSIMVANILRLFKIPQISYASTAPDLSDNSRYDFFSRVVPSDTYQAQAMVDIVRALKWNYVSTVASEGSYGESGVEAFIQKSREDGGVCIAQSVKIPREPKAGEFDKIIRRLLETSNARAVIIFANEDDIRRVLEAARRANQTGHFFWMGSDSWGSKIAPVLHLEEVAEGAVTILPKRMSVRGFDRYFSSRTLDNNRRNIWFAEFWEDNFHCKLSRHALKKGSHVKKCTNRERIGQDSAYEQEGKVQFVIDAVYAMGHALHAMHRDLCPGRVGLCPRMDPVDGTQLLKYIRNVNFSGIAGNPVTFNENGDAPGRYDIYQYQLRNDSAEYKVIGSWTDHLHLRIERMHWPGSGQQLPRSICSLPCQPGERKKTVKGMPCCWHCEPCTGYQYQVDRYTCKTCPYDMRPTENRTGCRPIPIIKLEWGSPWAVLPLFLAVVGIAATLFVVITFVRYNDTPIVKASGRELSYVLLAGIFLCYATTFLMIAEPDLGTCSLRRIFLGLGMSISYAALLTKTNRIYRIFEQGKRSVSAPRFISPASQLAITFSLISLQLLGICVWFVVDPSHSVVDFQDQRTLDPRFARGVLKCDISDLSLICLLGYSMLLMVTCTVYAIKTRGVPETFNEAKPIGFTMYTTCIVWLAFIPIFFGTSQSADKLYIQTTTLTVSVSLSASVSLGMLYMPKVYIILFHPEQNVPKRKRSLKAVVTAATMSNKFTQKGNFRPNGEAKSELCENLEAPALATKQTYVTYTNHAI
row,Activity,Structure (SMILES)
1,No significant activity,NC1(C(=O)O)CCC1CP(=O)(O)O (stereo in doubt; 5)
2,No significant activity,NC1(C(=O)O)CCC1CP(=O)(O)O (stereo in doubt; 6)
3,No significant activity,NC1(C(=O)O)CCCC1CP(=O)(O)O (stereo in doubt; 7)
4,No significant activity,NC1(C(=O)O)CCCC1CP(=O)(O)O (stereo in doubt; 8)

# Target: T1, Metabotropic glutamate receptor 4
# Assay: Effective concentration which exhibit agonistic activity at metabotropic glutamate 4 receptor stably expressed in AV12 cells
# Assay type: functional, cell-based
row,Structure (SMILES),EC50 [µM]
1,NC1(C(=O)O)CC1CP(=O)(O)O (stereo in doubt; 3),7.9
2,NC1(C(=O)O)CC1CP(=O)(O)O (stereo in doubt; 4),0.58
